Laboratory results from article PMC7359024, “Synthesis, Structure–Activity Relationship, and Mechanistic Studies of Aminoquinazolinones Displaying Antimycobacterial Activity” (ACS Infectious Diseases, 2020).
Converted amounts (≈) assume the structure as drawn. Like-named read-outs stand apart in the source and are kept apart here.

Tests used:
Mtb H37Rv strain = assay: MIC90 determination in GASTE-Fe media (broth microdilution); type: cell-based, Mycobacterium tuberculosis; parameters: fold loss in activity/potency (MIC90): reference not given here
[1] = type: in vitro ADME; details: for Metabolic Stability H (% Rem.): human liver microsomes; for Metabolic Stability M (% Rem.): mouse liver microsomes; for Metabolic Stability R (% Rem.): rat liver microsomes
Procedure: 3.2. Microsomal stability
The metabolic stability assay was performed in duplicate in a 96-well micro titre plate. The test compounds (0.1 μM) were incubated individually in mouse, rat and pooled human liver microsomes ((final protein concentration of 0.4 mg/mL; XenoTech, Lenexa, KS ), suspended in 0.1M phosphate buffer (pH 7.4) at 37 °C for predetermined time points, in the presence and absence of the cofactor NADPH (1 mM). Reactions were quenched by adding ice cold acetonitrile containing internal standard (carbamazepine, 0.0236 µg/mL). T he samples were centrifuged and test compound in the supernatant were analysed by means of LC -MS/MS (Agilent Rapid Resolution HPLC, AB SCIEX 4500 MS ). The relative loss of parent compound over time was monitored and plots (concentration vs. time) were prepared per compound to determine the first order rate constant for compound depletion. This was in turn used to calculate half-life, in vitro intrinsic clearance and in vivo hepatic extraction ratio. Metabolite searches were not conducted during the metabolic stability assay. 5

physchem = type: physicochemical; details: for solubility: kinetic solubility, pH 7.4, HPLC method
Procedure: The kinetic solubility assay was performed using a miniaturised shake flask method. 10 mM stock solutions of each of the test compounds were used to prepare calibration standards (10-220μM) in DMSO. The same 10mM stock solutions were accurately dispensed in duplicate into 96-well plates and the DMSO dried down (MiVac GeneVac, 90 min, 37 °C). Thereafter, the samples were reconstituted (200 µM) in phosphate buffered saline (pH 7.4) and shaken (20 hours, 25 °C). The solutions were filtered and analysed by means of HPLC -DAD (Agilent 1200 Rapid Resolution HPLC with a diode array detector). […]

[2] = Mycobacterium tuberculosis, H37RV, 336 h, read-out: MIC90 GAST-Fe
[3] = Mycobacterium tuberculosis, H37RV, 336 h, Mtb H37Rv, replicating conditions, GASTE-Fe media, read 14 days after incubation, read-out: MIC90 GASTE-Fe

Compound | MIC90 (Mtb H37Rv strain; [2]) | Metabolic Stability H (% Rem.) [1] | Metabolic Stability M (% Rem.) [1] | Metabolic Stability R (% Rem.) [1] | solubility (physchem; 25 °C, pH 7.4, aqueous buffer) | fold improvement in solubility (physchem; pH 7.4, relative to comparator analogue) | MIC90 (Mtb H37Rv strain; [3]) | MIC90 (Mtb H37Rv strain; read-out: MIC90 GAST-Fe) | solubility (physchem) | fold loss in activity/potency (MIC90) (Mtb H37Rv strain)
C[S+]([O-])c1cccc(-c2ccc3nc(N)n(-c4ccccc4C(F)(F)F)c(=O)c3c2)c1 (centres unmarked) [compound 48] | > 125 µM |  |  |  |  |  |  |  |  | 
NC(=O)c1cccc(-c2ccc3c(=O)n(-c4ccc(C(F)(F)F)cc4)c(N)nc3c2)c1 [compound 33] |  | 96 % Rem. | 92 % Rem. | 93 % Rem. | 58 µM (≈ 24.6 µg/mL) | 10 fold | 1.22 µM (≈ 0.518 µg/mL) |  |  | 
C[S+]([O-])c1cccc(-c2ccc3nc(N)n(-c4ccccc4)c(=O)c3c2)c1 (centres unmarked) [compound 35] | 33 µM (≈ 12.4 µg/mL) |  |  |  |  |  |  | 33.4 µM (≈ 12.5 µg/mL) |  | 
COc1cccc(-c2ccc3nc(N)n(-c4ccc(C(F)(F)F)cc4)c(=O)c3c2)c1 [compound 25] |  |  |  |  |  |  | 10 µM (≈ 4.11 µg/mL) |  |  | 
CNC(=O)c1cncc(-c2ccc3nc(N)n(-c4ccc(C(F)(F)F)cc4)c(=O)c3c2)c1 [compound 12] |  | 85 % Rem. | 75 % Rem. | 85 % Rem. | 40 µM (≈ 17.6 µg/mL) |  | 9.22 µM (≈ 4.05 µg/mL) |  | 39 µM (≈ 17.1 µg/mL) | 10 fold
CN(C)c1nc2ccc(-c3cccc([S+](C)[O-])c3)cc2c(=O)n1-c1ccc(C(F)(F)F)cc1 (centres unmarked) [compound 42, 2-(Dimethylamino)-6-(3-(methylsulfinyl)phenyl)-3-(4-(trifluoromethyl)phenyl)quinazolin-4(3H)-one] |  | 82 % Rem. | 80 % Rem. | 86 % Rem. | < 5 µM |  | 2.89 µM (≈ 1.36 µg/mL) |  |  | 
Nc1nc2ccc(-c3cccc(Cl)c3)cc2c(=O)n1-c1ccc(C(F)(F)F)cc1 [compound 29] |  | 73/-/- % Rem. |  |  | < 5 µM |  | 0.675 µM (≈ 0.281 µg/mL) |  |  | 
C[S+]([O-])c1cccc(-c2ccc3nc(N)n(-c4ccc(O)cc4)c(=O)c3c2)c1 (centres unmarked) [compound 52] | > 125 µM |  |  |  |  |  |  |  |  | 
C[S+]([O-])c1cccc(-c2ccc3nc(N)n(Cc4ccc(C(F)(F)F)cc4)c(=O)c3c2)c1 (centres unmarked) [compound 58] | > 31 µM | 52 % Rem. | 69 % Rem. | 61 % Rem. | > 100 µM |  |  |  | 104 µM (≈ 47.6 µg/mL) | 
C[S+]([O-])c1cccc(-c2ccc3nc(N)n(-c4ccc(C#N)cc4)c(=O)c3c2)c1 (centres unmarked) [compound 54] | 9.28 µM (≈ 3.72 µg/mL) | 92 % Rem. | 91 % Rem. | 98 % Rem. | 16.3 µM (≈ 6.53 µg/mL) |  |  |  | 16 µM (≈ 6.41 µg/mL) | 
C[S+]([O-])c1cccc(-c2ccc3nc(N)n(-c4cccc(C(F)(F)F)c4)c(=O)c3c2)c1 (centres unmarked) [compound 34] | 14.8 µM (≈ 6.56 µg/mL) | 50 % Rem. | 51 % Rem. | 58 % Rem. | > 100 µM |  |  |  | 164 µM (≈ 72.7 µg/mL) | 
C[S+]([O-])c1cccc(-c2ccc3nc(N)n(-c4ccc(F)cc4)c(=O)c3c2)c1 (centres unmarked) [compound 49] | 4.84 µM (≈ 1.9 µg/mL) | 82 % Rem. | 96 % Rem. | 93 % Rem. | 37.8 µM (≈ 14.9 µg/mL) |  |  |  | 38 µM (≈ 15 µg/mL) | 
C[S+]([O-])c1cccc(-c2ccc3nc(N)n(-c4ccc(C(F)(F)F)nc4)c(=O)c3c2)c1 (centres unmarked) [compound 47, 2-Amino-6-(3-(methylsulfinyl)phenyl)-3-(6-(trifluoromethyl)pyridin-3-yl)quinazolin-4(3H)-one] | 0.922 µM (≈ 0.41 µg/mL) | 93 % Rem. | 93 % Rem. | 99 % Rem. | < 5 µM |  |  |  |  | 
C[S+]([O-])c1cccc(-c2ccc3nc(N)n(-c4ccc(S(C)(=O)=O)cc4)c(=O)c3c2)c1 (centres unmarked) [compound 51] | > 125 µM |  |  |  |  |  |  |  |  | 
COc1ccc(-n2c(N)nc3ccc(-c4cccc([S+](C)[O-])c4)cc3c2=O)cc1 (centres unmarked) [compound 53] | 6.75 µM (≈ 2.74 µg/mL) | 100 % Rem. | 99 % Rem. | 103 % Rem. | > 100 µM |  |  |  | 128 µM (≈ 51.9 µg/mL) | 
CS(=O)(=O)c1cccc(-c2ccc3ncn(-c4ccc(C(F)(F)F)cc4)c(=O)c3c2)c1 [compound 38, 6-(3-(Methylsulfonyl)phenyl)-3-(4-(trifluoromethyl)phenyl)quinazolin-4(3H)-one] |  |  |  |  | < 5 µM |  | 2.96 µM (≈ 1.32 µg/mL) |  |  | 10 fold
